Source: patent publication US4476129A, “4-[2-[Bis(halophenyl)methoxy]-ethyl]-α-(substituted phenyl)-1-piperazinealkanol derivatives, processes for their preparation and pharmaceutical preparations containing them” (priority 1982, dated 1984)
“And” between values parts separate entries of the source, which are not always exact repeats. Identical values can stand only once. Counter-ions that a name gives are not always drawn. Like-named read-outs stand apart in the source and are kept apart here.

What was measured:
[1] = system: dopamine uptake by striatal synaptosomes (corpus striatum of the rat); assay: Inhibition of re-uptake of dopamine by striatal synaptosomes; assay type: biochemical; conditions: radioactive labelled dopamine
Description: A. Inhibition of re-uptake of dopamine by striatal synaptosomes.
The re-uptake process is the most important physiological mechanism causing inactivation of neurotransmitters like dopamine, which are released into the synaptic cleft by a nervous impulse. Inhibition of the dopamine uptake will lead to increased concentration of dopamine in the synaptic cleft and potentiation of the dopamine effect on the post-synaptic receptor. This inhibition was examined in vitro by incubation of synaptosomes of the corpus striatum of the rat with radioactive labelled dopamine, as described by P. van der Zee and W. Hespe, Neuropharmacol. 17, 483-490 (1978). Measurements were made of the concentration of the test compound giving 50% inhibition of the uptake (IC50).

dopamine receptors [2] = target: T1, dopamine receptors (Rattus norvegicus, UniProt P61169); assay: Affinity to dopamine receptors (receptor binding)
T1 construct: membrane fraction of the corpus striatum of the rat; from tissue; host or cells: rat corpus striatum, membrane fraction
T1 sequence (P61169 whole entry): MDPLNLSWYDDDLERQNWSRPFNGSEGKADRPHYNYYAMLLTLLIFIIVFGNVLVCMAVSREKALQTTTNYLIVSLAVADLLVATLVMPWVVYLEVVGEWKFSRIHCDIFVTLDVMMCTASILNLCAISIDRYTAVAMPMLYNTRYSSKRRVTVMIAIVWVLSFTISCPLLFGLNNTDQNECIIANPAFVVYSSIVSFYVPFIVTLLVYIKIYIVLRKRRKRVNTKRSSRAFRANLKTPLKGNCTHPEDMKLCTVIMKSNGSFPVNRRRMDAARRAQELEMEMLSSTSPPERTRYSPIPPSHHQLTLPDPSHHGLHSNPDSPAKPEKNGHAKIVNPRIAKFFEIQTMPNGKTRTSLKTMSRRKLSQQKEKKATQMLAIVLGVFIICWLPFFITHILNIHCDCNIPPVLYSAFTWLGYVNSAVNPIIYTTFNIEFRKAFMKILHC
Description: (§1) B. Affinity to dopamine receptors.
(§2) The affinity of the compounds to the dopamine receptors in a membrane fraction of the corpus striatum of the rat was determined as described by D. R. Burt et al., Mol. Pharmacol., 12, 800-812 (1976), dopamine and the dopamine antagonist haloperiodol being used as radioactive labelled ligands. The IC50-value is the concentration of the piperazine derivatives necessary to inhibit the specific binding of dopamine, or haloperiodol for 50%.

dopamine receptors [3] = assay: Affinity to dopamine receptors (receptor binding); parameters: species or system rat; conditions: membrane fraction of corpus striatum of the rat, radioactive labelled dopamine as ligand
Description: as §1, §2

[4] = system: stereotyped behaviour in female Wistar rats; assay: Stereotypy in the rat (stereotyped behaviour); assay type: in vivo; conditions: 50% of the maximal effect, observed 15-300 minutes after administration; for ED50: Rattus norvegicus, po; for ED50, stereotyped behaviour: p.o.
Description: C. Stereotypy in the rat.
The stereotyped behavior appearing in the rat after administration of centrally active dopaminergic substances can be regarded as a relevant test for antiparkinson agents.
The tests were carried out with female Wistar rats under conditions with a low level of stimuli. The behaviour of the rats was observed on 15, 30, 60, 120, 180, 240 and 300 minutes after administration of the substance, the following parameters being considered:
The total impression of the intensity of stereotypy was noted according to the following rating:
For each dose a group of four rats was used, so that the total score for the seven observations was maximally 7×4×3=84.

[5] = membrane fraction of corpus striatum of the rat, radioactive labelled haloperidol (dopamine antagonist) as ligand, read-out: IC50, receptor binding haloperidol

Row | Structure (SMILES) | IC50 [1] | IC50 (dopamine receptors [2]; [5]) | IC50 (dopamine receptors [3]) | ED50 [4] | ED50, stereotyped behaviour [4] | IC50 (dopamine receptors [2])
1 | OC(CCN1CCN(CCOC(c2ccc(F)cc2)c2ccc(F)cc2)CC1)c1ccc(F)cc1 (stereo not drawn) [Compound 3, 4-[2-[bis(4-fluorophenyl)methoxy]ethyl]-α-(4-fluorophenyl)-1-piperazinepropanol] | 8.2 nM | 610 nM | 8.7 nM | 1.7 mg/kg | 2.3 mg/kg p.o. and 1.3 mg/kg p.o. | –
2 | CC(O)(CCN1CCN(CCOC(c2ccc(F)cc2)c2ccc(F)cc2)CC1)c1ccc(F)cc1 (stereo not drawn) [Compound 6, 4-[2-[bis(4-fluorophenyl)methoxy]ethyl]-α-(4-fluorophenyl)-α-methyl-1-piperazinepropanol] | 6.7 nM | 277 nM | 32.3 nM | 11.4 mg/kg | – | –
3 | COC(CCN1CCN(CCOC(c2ccc(F)cc2)c2ccc(F)cc2)CC1)c1ccccc1.Cl.Cl (stereo not drawn) [Compound 16, 1-[2-[bis-(4-fluorophenyl)methoxy]ethyl]-4-(3-phenyl-3-methoxypropyl]piperazine dihydrochloride] | 13.2 nM | – | 50 nM | 4.6 mg/kg | – | 523 nM
4 | CC(C)C[C@H]1C(=O)N2CCC[C@H]2[C@]2(O)O[C@](NC(=O)[C@@H]3C=C4c5cccc6[nH]c(Br)c(c56)C[C@H]4N(C)C3)(C(C)C)C(=O)N12 [bromocriptine, reference compound] | – | – | – | 25.3 mg/kg | – | –
5 | CCNC(=O)OC(CCN1CCN(CCOC(c2ccc(F)cc2)c2ccc(F)cc2)CC1)c1ccccc1 (stereo not drawn) [Compound 18, Ethylcarbaminic[3-[4-[2-[bis(fluorophenyl)methoxy]ethyl]-1-piperazinyl]-1-phenylpropyl]ester (Z)-2-butenedioate (1:2)] | 2.4 nM | 216 nM | 16.9 nM | 11.2 mg/kg | – | –
6 | Cl.Cl.O=C(Cc1ccccc1)CN1CCN(CCOC(c2ccc(F)cc2)c2ccc(F)cc2)CC1 [Compound 13, 1-[4-[2-[bis(4-fluorophenyl)methoxy]ethyl]-1-piperazinyl]-3-phenyl-2-propanone dihydrochloride] | 27 nM | – | 76 nM | 9.1 mg/kg | – | 545 nM
7 | c1cnc(N2CCN(Cc3ccc4c(c3)OCO4)CC2)nc1 [piribedil, reference compound] | – | – | – | 99.5 mg/kg | – | –
8 | CCC(O)(CCN1CCN(CCOC(c2ccc(F)cc2)c2ccc(F)cc2)CC1)c1ccccc1 (stereo not drawn) [Compound 7, 4-[2-[bis(4-fluorophenyl)methoxy]ethyl]-α-ethyl-α-phenyl-1-piperazinepropanol] | 22.1 nM | 361 nM | 63 nM | 26 mg/kg | – | –
9 | CNC(=O)OC(CCN1CCN(CCOC(c2ccc(F)cc2)c2ccc(F)cc2)CC1)c1ccccc1 (stereo not drawn) [Compound 17, methylcarbaminic 3-[4-[2-[bis(4-fluorophenyl)methoxy]ethyl]-1-piperazinyl]-1-phenylpropyl]ester (Z)-2-butendioate (1:2)] | 4.9 nM | – | 27.2 nM | 4.3 mg/kg | 7.2 mg/kg p.o. | 97.3 nM
10 | OC(CCN1CCN(CCOC(c2ccc(F)cc2)c2ccc(F)cc2)CC1)c1ccccc1 (stereo not drawn) [Compound 2, 4-[2-[bis(4-fluorophenyl)methoxy]ethyl]-α-phenyl-1-piperazinepropanol] | 1.3 nM | – | 13.3 nM | – | – | 307 nM
11 | CC(O)(CCN1CCN(CCOC(c2ccc(F)cc2)c2ccc(F)cc2)CC1)c1ccccc1 (stereo not drawn) [Compound 5, 4-[2-[bis(4-fluorophenyl)methoxy]ethyl]-α-phenyl-α-methyl-1-piperazinepropanol] | 2.4 nM | 283 nM | 22.3 nM | 14 mg/kg | – | –
12 | Cl.Cl.O=C(CCCN1CCN(CCOC(c2ccc(F)cc2)c2ccc(F)cc2)CC1)c1ccccc1 [Compound 14, 4-[4-[2-[bis(4-fluorophenyl)methoxy]-ethyl]-1-piperazinyl]-1-phenyl-1-butanone dihydrochloride] | 2.5 nM | – | 15.5 nM | 18 mg/kg | – | 23.3 nM
13 | O=C(CCN1CCN(CCOC(c2ccc(F)cc2)c2ccc(F)cc2)CC1)c1ccc(F)cc1 [Compound 12, 3-[4-[2-[bis(4-fluorophenyl)methoxy]ethyl]-1-piperazinyl]-1-(4-fluorophenyl)-1-propanone] | 35.4 nM | 467 nM | 180 nM | 5.5 mg/kg | – | –
14 | OC(CCCN1CCN(CCOC(c2ccc(F)cc2)c2ccc(F)cc2)CC1)c1ccccc1 (stereo not drawn) [Compound 8, 4-[2-[bis(4-fluorophenyl)methoxy]ethyl]-α-phenyl-1-piperazinebutanol] | 3.4 nM | 445 nM | 4 nM | 6.2 mg/kg | 4.6 mg/kg p.o. | –
15 | OC(CN1CCN(CCOC(c2ccc(F)cc2)c2ccc(F)cc2)CC1)c1ccccc1 (stereo not drawn) [Compound 1, 4-[2-[bis(4-fluorophenyl)methoxy]ethyl]-α-phenyl-1-piperazineethanol] | 26.5 nM | 780 nM | 46.7 nM | 17.5 mg/kg | – | –
16 | O=C(CN1CCN(CCOC(c2ccc(F)cc2)c2ccc(F)cc2)CC1)c1ccccc1 [Compound 10, 2-[4-[2-[bis(4-fluorophenyl)methoxy]ethyl]-1-piperazinyl]-1-phenylethanonedihydrochloride] | 28.3 nM | 524 nM | 55 nM | – | – | –
17 | OC(Cc1ccccc1)CN1CCN(CCOC(c2ccc(F)cc2)c2ccc(F)cc2)CC1 (stereo not drawn) [Compound 4, 4-[2-[bis(4-fluorophenyl)methoxy]ethyl]-α-(phenylmethyl)-1-piperazineethanol] | 5.4 nM | 546 nM | 30.5 nM | ~6 mg/kg | – | –
18 | O=C(Nc1ccccc1)OC(CCN1CCN(CCOC(c2ccc(F)cc2)c2ccc(F)cc2)CC1)c1ccccc1 (stereo not drawn) [Compound 19, Phenylcarbaminic[3-[4-[2-[bis(4-fluorophenyl)methoxy]ethyl]-1-piperazinyl]-1-phenylpropyl]ester (Z)-2-butenedioate (1:2)] | 3.3 nM | 302 nM | 43.4 nM | – | – | –
19 | O=C(CCCN1CCN(CCOC(c2ccc(F)cc2)c2ccc(F)cc2)CC1)c1ccc(F)cc1 [Compound 15, 4-[4-[2bis(4-fluorophenyl)methoxy]ethyl]-1-piperazinyl]-1-(4-fluorophenyl)-1-butanone dihydrochloride] | 5.2 nM | – | 291 nM | > 46 mg/kg | – | 19 nM
20 | Cl.Cl.OC(CCCN1CCN(CCOC(c2ccc(F)cc2)c2ccc(F)cc2)CC1)c1ccc(F)cc1 (stereo not drawn) [Compound 9, 4-[2-[bis(4-fluorophenyl)methoxy]ethyl]-α-(4-fluorophenyl)-1-piperazinebutanol dihydrochloride] | 2.8 nM | – | 18.1 nM | < 5 mg/kg | – | 492 nM
21 | O=C(CCN1CCN(CCOC(c2ccc(F)cc2)c2ccc(F)cc2)CC1)c1ccccc1 [Compound 11, 3-[4-[2-[bis(4-fluorophenyl)methoxy]ethyl]-1-piperazinyl]-1-phenyl-1-propanone] | 39.7 nM | – | 80.3 nM | < 5.5 mg/kg | – | 268 nM
